Patent US8486959B2, “Dibenzo[f,h]isoquinoline derivatives” (National Health Research Institutes, priority 2010, dated 2013)
Like-named read-outs stand apart in the source and are kept apart here.

Tests used:
Format in all cases: cell-based
[1] = tested on: NO production in RAW 264.7 cells; test: Inhibition of nitric oxide production (Nitrate/Nitrite assay, Griess reagent); conditions: Mus musculus, RAW264.7, LPS (10 μg/ml)/IFNγ (20 ng/ml), 18-24 h, read-out: EC50 value for inhibiting nitric oxide production
Experimental: RAW 264.7 cells were seeded (70,000 cells/well) and cultured in a 96-well culture plate using the DMEM medium described above. 24 hours later, the medium was replaced with a fresh DMEM medium supplemented with LPS (10 μg/ml)/IFNγ (20 ng/ml). Test compounds (at different concentrations) were then added. The cells, incubated with or without test compounds, were then cultured for 18-24 h and the nitrate and nitric oxide levels in the culturing medium were measured using a Nitrate/Nitrite assay kit (Cayman Chemical). Nitrate was reduced to nitrite with nitrate reductase and determined spectrophotometrically with Griess reagent at OD540. For each test compound, a dose-response curve was drawn based on the concentrations of the compound versus the corresponding nitrate/nitric oxide levels in the culturing media of the cells treated with the compound. The EC50 value of that compound for inhibiting nitric oxide production was determined according to the dose-response curve.

[2] = tested on: NCI H460, MCF7, SF268, HONE-1, NUGC-3, HepG2 and A549 cells; test: Inhibition of cancer cell growth (MTS assay); conditions: Homo sapiens, tested cancer cells, 72 h, read-out: CC50 (concentration required to reduce the cancer cell growth by 50%)
Experimental: NCI H460 (human lung cancer cell line), MCF7 (human breast cancer cell line), SF268 (human brain cancer cell line), HONE-1 (human nasopharyngeal epithelial carcinomas cell line), NUGC-3 (human gastric cancer cell line) cells, HepG2 (human hepatocellular carcinoma cell line), and A549 (human lung adenocarcinoma epithelial cell line) were maintained in DMEM medium containing 10% fetal bovine serum, seeded in 96-well plates (2500, 6500, 7500, 4500, 6000, 10000, or 5000 cells/well), and incubated at 37° C. with 5% CO2 supply for 24 h. The cells were then incubated with or without a test compound (at five different concentrations) in a CO2 incubator at 37° C. for 72 h. The number of viable cells in each well was determined by the tetrazolium dye reduction assay (MTS assay) according to the protocol provided by the manufacturer (Promega, Madison, Wis., USA). For each test compound, a dose-response curve was drawn based on the concentrations of the compound versus the numbers of viable cells treated with the compound at those concentrations. The CC50 value of that compound, referring to the concentration of the compound required to reduce the cancer cell growth by 50%, was determined according to the dose-response curve.

[3] = tested on: Transmissible Gastroenteritis Virus (TGEV) spike (S) and nucleocapsid (N) proteins; test: Inhibition of TGEV protein production (indirect immunofluorescent assay in ST cells)
Experimental: Swine testicular (ST) cells were cultured in a 96-well plate in the presence or absence of a test compound (at 8 different concentrations) for 2 hours and then infected with TGEV at a MOI of 10. Six hours after TGEV infection, the ST cells were fixed with 80% acetone and subjected to an indirect immunofluorescent assay (IFA) to examine the levels of TGEV spike (S) and nucleocapsid (N) proteins. Briefly, the fixed cells were incubated with murine monoclonal antibodies specific to these two viral proteins for a sufficient period to allow binding of the antibodies to the viral proteins. After being washed with phosphate-buffered saline for three times, the cells were incubated with a fluorescein isothiocyanate-conjugated anti-mouse immunoglobulin antibody (ICN Pharmaceuticals, Inc./Cappel) for 60 min at room temperature. The cells were washed again with phosphate-buffered saline for three times, and the fluorescence intensities released from these cells were measured by a Wallac Victor II system (Packard, Inc.) at excitation and emission wavelengths 485 nm and 535 nm, respectively. The 50% effective concentration (EC50) for inhibiting S and N protein expression of the test compound was determined based on the florescence intensity values thus measured. Alternatively, the fluorescence intensities were detected by fluorescence microscopy. More specifically, the fluorescent images produced under 485 nm and 535 nm were captured by a charge-coupled device linked to a Leica IM50 Image Manager.

[4] = Alphacoronavirus 1, read-out: EC50 for inhibiting S and N protein expression
[5] = Alphacoronavirus 1, ST cells, compound 2 hours before TGEV infection at MOI of 10, read six hours after infection, read-out: EC50 for inhibiting S and N protein expression

SMILES | EC50 [1] [nM] | CC50 [2] [µM] | EC50 [3, 4] [nM] | EC50 [3, 5] [nM]
CCN1CCc2c(c3cc(OC)c(OC)cc3c3c(OC)c(OC)c(OC)cc23)C1 [Compound 1] | < 1000 | < 50 | < 1000 | –
CCCN1CCc2c(c3cc(OC)c(OC)cc3c3c(OC)c(OC)c(OC)cc23)C1 [Compound 2] | – | < 50 | < 1000 | –
CCCCN1CCc2c(c3cc(OC)c(OC)cc3c3c(OC)c(OC)c(OC)cc23)C1 [Compound 3] | – | < 50 | – | –
COc1cc2c3c(c4cc(OC)c(OC)c(OC)c4c2cc1OC)CCN(C(C)C)C3 [Compound 4] | – | < 50 | – | < 1000
CCN1CCc2c(c3cc(OC)c(OC)cc3c3cc(OC)ccc23)C1 [Compound 5] | – | < 50 | – | < 1000
CCCN1CCc2c(c3cc(OC)c(OC)cc3c3cc(OC)ccc23)C1 [Compound 6] | – | < 50 | – | < 1000
CCCCN1CCc2c(c3cc(OC)c(OC)cc3c3cc(OC)ccc23)C1 [Compound 7] | – | < 50 | – | –
CCCN1Cc2c(c3cc(OC)c(OC)c(OC)c3c3cc(OC)c(OC)cc23)C(O)C1 (centres unmarked) [Compound 8] | – | < 50 | – | < 1000
CCN1Cc2c(c3cc(OC)c(OC)cc3c3cc(OC)c(OC)cc23)C(O)C1 (centres unmarked) [Compound 9] | < 1000 | < 50 | – | < 1000
CCCN1Cc2c(c3cc(OC)c(OC)cc3c3cc(OC)c(OC)cc23)C(O)C1 (centres unmarked) [Compound 10] | < 1000 | < 50 | – | < 1000
COc1cc2c3c(c4cc(OC)c(OC)cc4c2cc1OC)C(O)CN(C(C)C)C3 (centres unmarked) [Compound 14] | < 1000 | < 50 | – | –
CCN1CCc2c(c3cc(OC)c(OC)cc3c3cc(OC)c(OC)cc23)C1 [Compound 18] | – | < 50 | – | –
CCCN1CCc2c(c3cc(OC)c(OC)cc3c3cc(OC)c(OC)cc23)C1 [Compound 19] | – | < 50 | < 1000 | –
CCCCN1CCc2c(c3cc(OC)c(OC)cc3c3cc(OC)c(OC)cc23)C1 [Compound 20] | – | < 50 | – | –
COc1cc2c3c(c4cc(OC)c(OC)cc4c2cc1OC)CN(CC(C)C)CC3 [Compound 21] | – | < 50 | – | –
COc1cc2c3c(c4cc(OC)c(OC)cc4c2cc1OC)CN(CC1OCCO1)CC3 [Compound 23] | – | < 50 | – | –
COc1cc2c3c(c4cc(OC)c(OC)cc4c2cc1OC)CN(CCC1OCCO1)CC3 [Compound 24] | – | < 50 | – | –
COc1cc2c3c(c4cc(OC)c(OC)cc4c2cc1OC)CN(C(C)C)CC3 [Compound 25] | < 1000 | < 50 | < 1000 | –
CCC(C)N1CCc2c(c3cc(OC)c(OC)cc3c3cc(OC)c(OC)cc23)C1 (centres unmarked) [Compound 26] | – | < 50 | < 1000 | –
CCCN1CCc2c(c3ccc(OC)cc3c3cc(OC)c(OC)cc23)C1 [Compound 29] | – | < 50 | – | –
CCN1CCc2c(c3cc(OC)ccc3c3cc(OC)c(OC)cc23)C1 [Compound 30] | – | < 50 | – | –
CCCN1CCc2c(c3cc(OC)ccc3c3cc(OC)c(OC)cc23)C1 [Compound 31] | – | < 50 | – | –
CCCN1CCc2c(c3cc(OC)ccc3c3c(OC)c(OC)ccc23)C1 [Compound 32] | – | < 50 | – | –
CCN1Cc2c(c3ccc(OC)cc3c3cc(OC)c(OC)cc23)C(O)C1 (centres unmarked) [Compound 33] | < 1000 | < 50 | – | –
COc1cc2c3c(c4cc(OC)c(OC)cc4c2cc1OC)CN(C1C=CCCC1)CC3 (centres unmarked) [Compound 34] | – | < 50 | – | –
COc1cc2c3c(c4cc(OC)c(OC)cc4c2cc1OC)CN(CCNC(=O)OC(C)(C)C)CC3 [Compound 35] | – | < 50 | – | –
COc1cc2c3c(c4cc(OC)c(OC)cc4c2cc1OC)CN(CCN)CC3 [Compound 36] | – | < 50 | – | –
